Measurements: US20040006236A1, “Diaminopropionic acid derivatives” (priority 1999, published 2004)
Where two headings read alike, the source gives them in different places.

Legend:
[1] = system: T lymphocyte proliferation (C57BI/6 spleen cells with irradiated BALB/c spleen cells); test: Mixed lymphocyte reaction (MLR), one-way; format: cell-based, mice
Outline: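 Irradiated BALB/c spleen cells mixed with C57BI/6 spleen cells in RPMI1640/10% heat-inactivated FBS/2-mercaptoethanol, with serial antagonist dilutions; 3 days at 5% CO2. Tritiated thymidine (0.5 μCi/well) added on day 3; incorporation counted by liquid scintillation after a further 6 h.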

[2] = molecular target: T1, LFA-1 binding to immobilized ICAM-1 (Homo sapiens, UniProt P05107+P20701); test: LFA-1/ICAM-1 protein-protein assay (solid-phase ELISA)
T1 construct: made in house; host or cells: transfected 293 cells (LFA-1)
T1 sequence (P20701 26-1170): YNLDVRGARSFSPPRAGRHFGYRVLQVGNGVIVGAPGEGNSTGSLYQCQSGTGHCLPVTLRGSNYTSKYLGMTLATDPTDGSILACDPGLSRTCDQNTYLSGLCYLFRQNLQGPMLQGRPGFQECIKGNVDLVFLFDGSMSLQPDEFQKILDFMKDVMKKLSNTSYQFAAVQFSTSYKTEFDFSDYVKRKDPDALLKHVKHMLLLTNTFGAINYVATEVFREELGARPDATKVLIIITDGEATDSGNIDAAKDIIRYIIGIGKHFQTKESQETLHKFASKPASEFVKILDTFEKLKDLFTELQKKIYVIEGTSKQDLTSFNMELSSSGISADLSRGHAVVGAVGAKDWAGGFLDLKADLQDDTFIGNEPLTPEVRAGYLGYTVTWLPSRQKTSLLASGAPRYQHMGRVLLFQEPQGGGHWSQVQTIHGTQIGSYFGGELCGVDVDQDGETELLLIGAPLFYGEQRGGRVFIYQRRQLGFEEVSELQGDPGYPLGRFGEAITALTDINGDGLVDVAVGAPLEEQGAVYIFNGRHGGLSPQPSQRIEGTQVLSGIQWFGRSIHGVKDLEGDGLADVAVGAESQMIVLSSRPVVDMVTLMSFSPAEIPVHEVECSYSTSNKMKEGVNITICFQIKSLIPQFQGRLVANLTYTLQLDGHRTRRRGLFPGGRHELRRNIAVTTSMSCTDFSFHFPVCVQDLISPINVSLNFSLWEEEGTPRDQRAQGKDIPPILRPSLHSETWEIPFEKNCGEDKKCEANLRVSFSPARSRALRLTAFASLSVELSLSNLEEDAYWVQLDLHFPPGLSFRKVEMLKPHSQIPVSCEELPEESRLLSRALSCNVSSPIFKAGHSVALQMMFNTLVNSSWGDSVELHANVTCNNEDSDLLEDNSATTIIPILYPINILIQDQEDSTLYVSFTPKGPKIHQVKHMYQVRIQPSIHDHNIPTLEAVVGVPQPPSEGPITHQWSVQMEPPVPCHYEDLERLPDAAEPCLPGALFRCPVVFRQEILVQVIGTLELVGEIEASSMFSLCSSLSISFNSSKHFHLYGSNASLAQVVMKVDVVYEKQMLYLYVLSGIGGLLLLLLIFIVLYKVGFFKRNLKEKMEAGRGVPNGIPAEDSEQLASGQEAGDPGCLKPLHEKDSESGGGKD
T1 sequence (P05107 23-769): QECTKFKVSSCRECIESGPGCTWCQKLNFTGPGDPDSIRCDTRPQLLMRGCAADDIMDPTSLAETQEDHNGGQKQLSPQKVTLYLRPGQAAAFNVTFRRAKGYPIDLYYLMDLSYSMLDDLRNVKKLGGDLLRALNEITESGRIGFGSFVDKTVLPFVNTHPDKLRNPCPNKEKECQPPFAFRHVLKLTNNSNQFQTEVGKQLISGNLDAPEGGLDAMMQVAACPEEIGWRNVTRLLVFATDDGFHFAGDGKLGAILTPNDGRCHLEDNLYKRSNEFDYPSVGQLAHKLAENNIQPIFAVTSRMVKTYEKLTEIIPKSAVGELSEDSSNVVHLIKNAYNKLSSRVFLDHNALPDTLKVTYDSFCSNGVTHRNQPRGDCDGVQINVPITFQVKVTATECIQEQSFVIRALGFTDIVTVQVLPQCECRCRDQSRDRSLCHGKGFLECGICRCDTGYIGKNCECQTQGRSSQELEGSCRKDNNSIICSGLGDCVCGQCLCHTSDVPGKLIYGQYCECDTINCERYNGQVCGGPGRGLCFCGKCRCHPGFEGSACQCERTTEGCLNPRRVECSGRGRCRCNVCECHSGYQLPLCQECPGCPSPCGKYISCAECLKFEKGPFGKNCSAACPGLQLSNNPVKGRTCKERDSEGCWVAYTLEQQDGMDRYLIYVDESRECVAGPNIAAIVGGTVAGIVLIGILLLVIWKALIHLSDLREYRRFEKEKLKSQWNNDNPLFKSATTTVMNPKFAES
Outline: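 Human 5dICAM-Ig (ICAM-1 extracellular domain–IgG Fc) coated on plates; membrane-bound LFA-1 from transfected 293 cells (280 ng/mL) added with compound in Mn2+-containing HEPES buffer pH 7.2, 2 h at 37° C. Bound LFA-1 detected via anti-β2 antibody and HRP/TMB at 450 nm; IC50s determined.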

[3] = Mus musculus, T-lymphocyte; read-out: MLR IC50
[4] = read-out: LFA-1/ICAM-1 Protein-Protein Assay IC50

`O=C(Cc1cccc(C(F)(F)F)c1)NC[C@H](NC(=O)c1ccc(C(=O)NCc2cccc(O)c2)cc1Cl)C(=O)O` [Example 82] was tested, and the IC50 [1, 3] was 1.7 µM and the IC50 [2, 4] was 0.0043 µM.

For `O=C(CSc1ccncc1)NC[C@H](NC(=O)c1ccc(C(=O)NCc2cccc(O)c2)cc1Cl)C(=O)O` [Example 90], the IC50 [1, 3] was 1.45 µM and the IC50 [2, 4] was 0.0024 µM.

With `O=C(Cc1ccc([N+](=O)[O-])cc1)NC[C@H](NC(=O)c1ccc(C(=O)NCc2cccc(O)c2)cc1Cl)C(=O)O` [Example 81] the IC50 [1, 3] was 1.65 µM and the IC50 [2, 4] was 0.004 µM.

For `CC(=O)NC[C@H](NC(=O)c1ccc(C(=O)NCc2cccc(O)c2)cc1Cl)C(=O)O` [Example 193], the IC50 [1, 3] was 0.83 µM and the IC50 [2, 4] was 0.0007 µM.

In the case of `N[C@@H](Cc1c[nH]c2ccccc12)C(=O)NC[C@H](NC(=O)c1ccc(C(=O)NCc2cccc(O)c2)cc1Cl)C(=O)O` [Example 201], the IC50 [1, 3] is reported as 17.3 µM and the IC50 [2, 4] is reported as 0.0076 µM.

With `Cc1cc(C(=O)NCc2cccc(O)c2)ccc1C(=O)N[C@@H](CNC(=O)c1cccs1)C(=O)O` [Example 323] the IC50 [1, 3] was 0.325 µM and the IC50 [2, 4] was 0.0013 µM.

With `O=C(CSc1ncccn1)NC[C@H](NC(=O)c1ccc(C(=O)NCc2cccc(O)c2)cc1Cl)C(=O)O` [Example 91] the IC50 [1, 3] was 2.45 µM and the IC50 [2, 4] was 0.005 µM.

`NCCCC(=O)NC[C@H](NC(=O)c1ccc(C(=O)NCc2cccc(O)c2)cc1Cl)C(=O)O` [Example 261, N-[2-chloro-4-[[[(3-hydroxyphenyl)methyl]amino]-carbonyl]benzoyl]-3-(4-aminobutanoylamino)-L-alanine] was tested, and the IC50 [1, 3] was 0.78 µM and the IC50 [2, 4] was 0.0022 µM.

With `O=C(NC[C@H](NC(=O)c1c(Cl)cccc1Cl)C(=O)O)c1ccc(Br)s1` [Example 223] the IC50 [1, 3] was 3.6 µM and the IC50 [2, 4] was 0.0064 µM.

`Cc1cc(C(=O)NCc2cccc(O)c2)cc(Cl)c1C(=O)N[C@@H](CNC(=O)c1ccsc1)C(=O)O` [Example 339, N-[2-chloro-4-[[[(3-hydroxyphenyl)methyl]amino]carbonyl]-6-methylbenzoyl]-3-[(thiophene-3-carbonyl)amino]-L-alanine] showed an IC50 [1, 3] of 0.029 µM and an IC50 [2, 4] of 0.0017 µM.

`O=C(NCc1cccc(O)c1)c1ccc(C(=O)N[C@@H](CNC(=O)c2cc(F)cc(F)c2)C(=O)O)c(Cl)c1` [Example 252, N-[2-chloro-4-[[[(3-hydroxyphenyl)methyl]amino]carbonyl]benzoyl]-3-(3,5-difluorobenzoyl)amino-L-alanine] gave an IC50 [1, 3] of 0.34 µM and an IC50 [2, 4] of 0.0009 µM.

`O=C(NCc1cccc(O)c1)c1cc(Cl)c(C(=O)N[C@@H](CNC(=O)c2ccsc2)C(=O)O)c(Cl)c1` [Example 343, N-[2,6-dichloro-4-[[[(3-hydroxyphenyl)methyl]amino]carbonyl]benzoyl]-3-[(thiophene-3-carbonyl)amino]-L-alanine] gave an IC50 [1, 3] of 0.03 µM and an IC50 [2, 4] of 0.0025 µM.

Compound `O=C(CC1c2ccccc2-c2ccccc21)NC[C@H](NC(=O)c1ccc(C(=O)NCc2cccc(O)c2)cc1Cl)C(=O)O` [Example 88] has an IC50 [1, 3] of 12.5 µM and an IC50 [2, 4] of 0.0018 µM.

Compound `O=C(NC[C@H](NC(=O)c1c(F)cccc1Cl)C(=O)O)c1ccc(Br)s1` [Example 224] has an IC50 [1, 3] of 11.1 µM and an IC50 [2, 4] of 0.024 µM.

With `Cc1ccc(C(=O)NC[C@H](NC(=O)c2ccc(C(=O)NCc3cccc4[nH]ccc34)cc2Cl)C(=O)O)s1` [Example 317] the IC50 [1, 3] was 1.75 µM and the IC50 [2, 4] was 0.0035 µM.

In the case of `O=C(NCc1cccc(O)c1)c1ccc(C(=O)N[C@@H](CNC(=O)c2ccc3c(c2)S(=O)(=O)c2ccccc2C3=O)C(=O)O)c(Cl)c1` [Example 192], the IC50 [1, 3] is reported as 1.7 µM and the IC50 [2, 4] is reported as 0.0013 µM.

`O=C(NCc1cccc(O)c1)c1ccc(C(=O)N[C@@H](CNC(=O)c2ccc3ncsc3c2)C(=O)O)c(Cl)c1` [Example 177] gave an IC50 [1, 3] of 0.95 µM and an IC50 [2, 4] of 0.001 µM.

Work on `O=C(CC1CCCCC1)NC[C@H](NC(=O)c1ccc(C(=O)NCc2cccc(O)c2)cc1Cl)C(=O)O` [Example 78] yielded an IC50 [1, 3] of 1.02 µM and an IC50 [2, 4] of 0.001 µM.

In the case of `COc1c(C(=O)NC[C@H](NC(=O)c2ccc(C(=O)NCc3cccc(O)c3)cc2Cl)C(=O)O)csc1Cl` [Example 258, N-[2-chloro-4-[[[(3-hydroxyphenyl)methyl]amino]carbonyl]benzoyl]-3-(5-chloro-4-methoxythiophene-3-carbonyl)amino-L-alanine], the IC50 [1, 3] is reported as 3.75 µM and the IC50 [2, 4] is reported as 0.0022 µM.

`O=C(NCc1cccc2[nH]ccc12)c1ccc(C(=O)N[C@@H](CNC(=O)c2ccccc2)C(=O)O)c(Cl)c1` [Example 314, 3-(benzoylamino)-N-[2-chloro-4-[[(1H-indol-4-ylmethyl)amino]carbonyl]benzoyl]-L-alanine] was tested, and the IC50 [1, 3] was 0.625 µM and the IC50 [2, 4] was 0.0019 µM.

`O=C(NCc1cccc(O)c1)c1ccc(C(=O)N[C@@H](CNC(=O)C2CCNCC2)C(=O)O)c(Cl)c1` [Example 262] showed an IC50 [1, 3] of 1.8 µM and an IC50 [2, 4] of 0.0048 µM.

For `O=C(NCc1cccc(O)c1)c1ccc(C(=O)N[C@@H](CNC(=O)c2ccno2)C(=O)O)c(Cl)c1` [Example 256], the IC50 [1, 3] was 0.525 µM and the IC50 [2, 4] was 0.0008 µM.

`NC1(C(=O)NC[C@H](NC(=O)c2ccc(C(=O)NCc3cccc(O)c3)cc2Cl)C(=O)O)CCCC1` [Example 263] showed an IC50 [1, 3] of 2.1 µM and an IC50 [2, 4] of 0.0042 µM.

`Cc1cc(C(=O)N[C@H](C)c2cccc3ccccc23)cc(C)c1C(=O)N[C@@H](CNC(=O)c1cccs1)C(=O)O` [Example 333] was tested, and the IC50 [1, 3] was 0.18 µM and the IC50 [2, 4] was 0.0035 µM.

Work on `Cc1cc(C(=O)NCc2cccc(O)c2)cc(Cl)c1C(=O)N[C@@H](CNC(=O)c1cccs1)C(=O)O` [Example 338, N-[2-chloro-4-[[[(3-hydroxyphenyl)methyl]amino]carbonyl]-6-methylbenzoyl]-3-[(thiophene-2-carbonyl)amino]-L-alanine] yielded an IC50 [1, 3] of 0.021 µM and an IC50 [2, 4] of 0.0015 µM.

With `N[C@H]1CC[C@@H](C(=O)NC[C@H](NC(=O)c2ccc(C(=O)NCc3cccc(O)c3)cc2Cl)C(=O)O)CC1` [Example 264] the IC50 [1, 3] was 1.95 µM and the IC50 [2, 4] was 0.0046 µM.

`C[C@@H](NC(=O)c1ccc(C(=O)N[C@@H](CNC(=O)c2cccs2)C(=O)O)c(Br)c1)c1cccc2ccccc12` [Example 332] was tested, and the IC50 [1, 3] was 1.54 µM and the IC50 [2, 4] was 0.0048 µM.

`O=C(NCc1cccc2c1CCN2)c1ccc(C(=O)N[C@@H](CNC(=O)c2cccs2)C(=O)O)c(Cl)c1` [Example 318, 3-(thiophene-2-carbonyl)amino-N-[2-chloro-4-[[(2,3-dihydro-1H-indol-4-ylmethyl)amino]carbonyl]benzoyl]-L-alanine] showed an IC50 [1, 3] of 1.85 µM and an IC50 [2, 4] of 0.0019 µM.

`Cc1cc(C(=O)NCc2cccc(O)c2)cc(C)c1C(=O)N[C@@H](CNC(=O)c1cccs1)C(=O)O` [Example 330] showed an IC50 [1, 3] of 0.032 µM and an IC50 [2, 4] of 0.0014 µM.

With `O=C(NCc1cccc(O)c1)c1ccc(C(=O)N[C@@H](CNC(=O)[C@@H]2CCCN2)C(=O)O)c(Cl)c1` [Example 196] the IC50 [1, 3] was 5.5 µM and the IC50 [2, 4] was 0.0028 µM.

For `Cc1cc(C(=O)NCc2cccc(O)c2)cc(C)c1C(=O)N[C@@H](CNC(=O)c1ccsc1)C(=O)O` [Example 336, N-[2,6-dimethyl-4-[[[(3-hydroxyphenyl)methyl]amino]carbonyl]benzoyl]-3-(thiophene-3-carbonyl)amino-L-alanine], the IC50 [1, 3] was 0.033 µM and the IC50 [2, 4] was 0.0021 µM.

Work on `O=C(NCc1cccc(O)c1)c1ccc(C(=O)N[C@@H](CNC(=O)c2cccc3ccccc23)C(=O)O)c(Cl)c1` [Example 178] yielded an IC50 [1, 3] of 0.9 µM and an IC50 [2, 4] of 0.0023 µM.

For `Nc1cccc(CNC(=O)c2ccc(C(=O)N[C@@H](CNC(=O)c3cccs3)C(=O)O)c(Br)c2)c1` [Example 334, N-[4-[[[(3-aminophenyl)methyl]amino]carbonyl]-2-bromobenzoyl]-3-(thiophene-2-carbonyl)amino-L-alanine], the IC50 [1, 3] was 0.495 µM and the IC50 [2, 4] was 0.003 µM.

For `O=C(Cc1ccc([N+](=O)[O-])cc1[N+](=O)[O-])NC[C@H](NC(=O)c1ccc(C(=O)NCc2cccc(O)c2)cc1Cl)C(=O)O` [Example 83], the IC50 ([1]; Mus musculus, T-lymphocyte, read-out: MLR IC50) was 0.46 µM and the IC50 ([2]; LFA-1/ICAM-1 Protein-Protein Assay IC50) was 0.0023 µM.

`CC(C)(C)C(=O)NC[C@H](NC(=O)c1ccc(C(=O)NCc2cccc(O)c2)cc1Cl)C(=O)O` [Example 92] gave an IC50 [1, 3] of 0.9 µM and an IC50 [2, 4] of 0.0021 µM.

For `O=C(NCc1cccc(O)c1)c1ccc(C(=O)N[C@@H](CNC(=O)c2cnc3ccccc3c2)C(=O)O)c(Cl)c1` [Example 183], the IC50 [1, 3] was 4.6 µM and the IC50 [2, 4] was 0.012 µM.

Work on `O=C(O)CCCC(=O)NC[C@H](NC(=O)c1ccc(C(=O)NCc2cccc(O)c2)cc1Cl)C(=O)O` [Example 298] yielded an IC50 [1, 3] of 1.8 µM and an IC50 [2, 4] of 0.0048 µM.

With `COc1cscc1C(=O)NC[C@H](NC(=O)c1ccc(C(=O)NCc2cccc(O)c2)cc1Cl)C(=O)O` [Example 257] the IC50 [1, 3] was 1.4 µM and the IC50 [2, 4] was 0.0012 µM.

For `N[C@@H](CCC(=O)NC[C@H](NC(=O)c1ccc(C(=O)NCc2cccc(O)c2)cc1Cl)C(=O)O)C(=O)O` [Example 202], the IC50 [1, 3] was 0.5 µM and the IC50 [2, 4] was 0.0018 µM.

Compound `O=C(NCc1cccc(O)c1)c1ccc(C(=O)N[C@@H](CNC(=O)C(c2ccccc2)c2ccccc2)C(=O)O)c(Cl)c1` [Example 86] has an IC50 [1, 3] of 4.15 µM and an IC50 [2, 4] of 0.0033 µM.

Work on `O=C(O)c1cccc(C(=O)NC[C@H](NC(=O)c2ccc(C(=O)NCc3cccc(O)c3)cc2Cl)C(=O)O)c1` [Example 297] yielded an IC50 [1, 3] of 1.65 µM and an IC50 [2, 4] of 0.0008 µM.

`O=C(NCc1cccc(O)c1)c1ccc(C(=O)N[C@@H](CNC(=O)c2cnccn2)C(=O)O)c(Cl)c1` [Example 170] gave an IC50 [1, 3] of 0.56 µM and an IC50 [2, 4] of 0.0019 µM.

With `O=C(NCc1cccc(O)c1)c1ccc(C(=O)N[C@@H](CNC(=O)c2c3c(nc4ccccc24)CCCC3)C(=O)O)c(Cl)c1` [Example 190] the IC50 [2, 4] was 0.013 µM.

With `O=C(NC[C@H](NC(=O)c1c(F)cccc1Cl)C(=O)O)c1ccc2[nH]nnc2c1` [Example 226] the IC50 [2, 4] was 0.047 µM.
